Among the data in patent US9133200B2, “Imidazo[1,2-b]pyridazine and imidazo[4,5-b]pyridine derivatives as JAK inhibitors” (Almirall, S.A., priority 2010, dated 2015) are IC50 values, retold here.

The term IC50 denotes the point on the concentration scale where inhibition reaches its midpoint. A lower IC50 goes with higher potency.

Type in all cases: biochemical
The target in one assay is T1, human JAK3 (aa 795-1124) (Homo sapiens, UniProt P52333).
T1 construct: JAK3 (aa 795-1124); GST (N); purchased Carna Biosciences; host or cells: baculovirus expression system
The assay can be described thus: In vitro JAK kinase assay (TR-FRET), JAK3. Conditions: catalytic domain GST-fusion; ATP 0.6 μM; poly (GT)-Biotin 140 nM; 30 minutes at room temperature. As to the method:
(§1) Compounds were screened for their ability to inhibit JAK1, JAK2 and JAK3 using the assays as indicated below.
(§2) The catalytic domains of human JAK1 (aa 850-1154), JAK2 (aa 826-1132), JAK3 (aa 795-1124) and Tyk2 (aa 871-1187) were expressed as N-terminal GST-fusion proteins using a baculovirus expression system and were purchased from Carna Biosciences. The enzymatic activity was assayed using as substrate a biotinylated peptide, poly (GT)-Biotin (CisBio). The peptide concentration in the reactions was 60 nM for JAK1, […], 140 nM for JAK3 and 50 nM for Tyk2. The degree of phosphorylation was detected by TR-FRET (time-resolved fluorescence energy transfer).
(§3) IC50s of compounds were measured for each kinase in a reaction mixture containing the enzyme, ATP and the peptide in 8 mM MOPS (pH 7.0), 10 mM MgCl2, 0.05% […], 0.45 mg/ml BSA. The ATP concentration in the reactions was 3 μM for JAK1, 0.2 μM for JAK2, 0.6 μM for JAK3 and 1.8 μM for Tyk2. The enzymatic reactions took place for 30 minutes at room temperature. Then, the reactions were stopped with 20 μL of quench detection buffer (50 mM HEPES, 0.5 M KF, EDTA 0.25 M, 0.1% (w/v) BSA, pH 7.5) containing 0.115 μg/mL of anti-phosphoTyr (PT66)-Cryptate (CisBio) and a variable concentration of SA-XL665 (CisBio) to keep the SA-B ratio constant. Incubate for 3 h and read on Victor 2V spectrofluorometer (PerkinElmer) set to read fluorescence resonance energy transfer.
Background: Time-resolved FRET reads energy transfer from a long-lived donor to a nearby acceptor.

Another assay deals with T2, human JAK1 (aa 850-1154) (Homo sapiens, UniProt P23458).
T2 construct: human JAK1 (aa 850-1154); GST (N); purchased Carna Biosciences; host or cells: baculovirus expression system
The experiment in a line: In vitro JAK kinase assay (TR-FRET), JAK1. Conditions: catalytic domain GST-fusion; ATP 3 μM; poly (GT)-Biotin 60 nM; 30 minutes at room temperature. As for the experimental part:
as §1, §2, §3

A further assay addresses T3, human JAK2 (aa 826-1132) (Homo sapiens, UniProt O60674).
T3 construct: JAK2 (aa 826-1132); GST (N); purchased Carna Biosciences; host or cells: baculovirus expression system
The experiment in a line: In vitro JAK kinase assay (TR-FRET), JAK2. The following applies: catalytic domain GST-fusion; ATP 0.2 μM; poly (GT)-Biotin; 30 minutes at room temperature. As to the method:
as §1, §2, §3

T2 sequence (P23458 850-1154): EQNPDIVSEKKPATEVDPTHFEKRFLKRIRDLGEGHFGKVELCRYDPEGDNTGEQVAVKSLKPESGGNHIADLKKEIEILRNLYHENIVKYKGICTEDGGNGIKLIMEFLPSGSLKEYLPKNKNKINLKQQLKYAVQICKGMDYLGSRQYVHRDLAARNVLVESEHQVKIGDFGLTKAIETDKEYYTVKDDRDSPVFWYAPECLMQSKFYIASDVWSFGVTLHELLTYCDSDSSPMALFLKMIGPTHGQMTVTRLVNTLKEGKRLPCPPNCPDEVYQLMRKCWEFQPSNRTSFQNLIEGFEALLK
T3 sequence (O60674 826-1132): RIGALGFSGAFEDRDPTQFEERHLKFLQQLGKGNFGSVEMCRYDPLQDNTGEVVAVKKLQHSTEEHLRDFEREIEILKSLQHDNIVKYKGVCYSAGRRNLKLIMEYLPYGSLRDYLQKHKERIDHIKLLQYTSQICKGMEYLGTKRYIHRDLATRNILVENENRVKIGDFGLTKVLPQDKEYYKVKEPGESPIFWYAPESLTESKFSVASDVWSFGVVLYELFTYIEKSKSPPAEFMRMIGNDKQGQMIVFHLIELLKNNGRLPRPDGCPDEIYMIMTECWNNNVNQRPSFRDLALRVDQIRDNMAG
T1 sequence (P52333 795-1124): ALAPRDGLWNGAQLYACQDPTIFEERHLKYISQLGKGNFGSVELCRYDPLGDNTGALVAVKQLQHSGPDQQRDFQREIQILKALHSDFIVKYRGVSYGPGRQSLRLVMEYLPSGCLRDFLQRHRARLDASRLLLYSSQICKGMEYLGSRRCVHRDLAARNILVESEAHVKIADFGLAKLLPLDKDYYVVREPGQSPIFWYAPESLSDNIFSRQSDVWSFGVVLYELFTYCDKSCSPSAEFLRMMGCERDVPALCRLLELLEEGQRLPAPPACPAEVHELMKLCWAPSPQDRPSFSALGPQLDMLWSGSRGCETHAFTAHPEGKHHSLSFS

As for `N#CCC(=O)N1CCC[C@@H](Nc2ccc3ncc(-c4ccc[nH]c4=O)n3n2)C1` [Example 1, 3-Oxo-3-((3R)-3-{[3-(2-oxo-1,2-dihydropyridin-3-yl)imidazo[1,2-b]pyridazin-6-yl]amino}piperidin-1-yl)propanenitrile], the half-maximal inhibitory concentration (IC50) at human JAK3 (aa 795-1124), at human JAK1 (aa 850-1154) and at human JAK2 (aa 826-1132) was below 100 nM in each case.

Consider `C[C@@H](Nc1ccc2ncc(-c3ccc[nH]c3=O)n2n1)c1ccc(F)cn1` [Example 4, 3-(6-{[(1R)-1-(5-Fluoropyridin-2-yl)ethyl]amino}imidazo[1,2-b]pyridazin-3-yl) pyridin-2(1H)-one], for which the IC50 is below 100 nM against human JAK3 (aa 795-1124), 100 to 1000 nM against human JAK1 (aa 850-1154) and below 100 nM at human JAK2 (aa 826-1132).

Regarding `C[C@H](Nc1ccc2ncc(-c3ccc[nH]c3=O)n2n1)c1ncc(F)cn1` [Example 5, 3-(6-{[(1S)-1-(5-Fluoropyrimidin-2-yl)ethyl]amino}imidazo[1,2-b]pyridazin-3-yl)pyridin-2(1H)-one], the IC50 against human JAK3 (aa 795-1124), against human JAK1 (aa 850-1154) and at human JAK2 (aa 826-1132) was below 100 nM in each case.

For the compound `C[C@H](Nc1ccc2ncc(-c3ccn[nH]c3=O)n2n1)c1ccccc1` [Example 6, 4-(6-{[(1S)-1-Phenylethyl]amino}imidazo[1,2-b]pyridazin-3-yl)pyridazin-3(2H)-one], the half-inhibitory concentration (IC50) is below 100 nM against human JAK3 (aa 795-1124), 100 to 1000 nM at human JAK1 (aa 850-1154) and below 100 nM against human JAK2 (aa 826-1132).

With `C[C@H](Nc1ccc2ncc(-c3cc(Cl)c[nH]c3=O)n2n1)c1ccc(F)cn1` [Example 8, 5-Chloro-3-(6-{[(1S)-1-(5-fluoropyridin-2-yl)ethyl]amino}imidazo[1,2-b]pyridazin-3-yl)pyridin-2(1H)-one], the IC50 at human JAK3 (aa 795-1124), against human JAK1 (aa 850-1154) and against human JAK2 (aa 826-1132) was below 100 nM each time.

As to `Cc1cc2ncc(-c3ccc[nH]c3=O)n2nc1N[C@@H](C)c1ccc(F)cn1` [Example 9, 3-(6-{[(1S)-1-(5-Fluoropyridin-2-yl)ethyl]amino}-7-methylimidazo[1,2-b]pyridazin-3-yl)pyridin-2(1H)-one], the IC50 on human JAK3 (aa 795-1124), against human JAK1 (aa 850-1154) and on human JAK2 (aa 826-1132) was below 100 nM each time.

Consider `C[C@H](Nc1ccc2ncn(-c3cc(Cl)c[nH]c3=O)c2n1)c1ccc(F)cn1` [Example 13, 5-Chloro-3-(5-{[(1S)-1-(5-fluoropyridin-2-yl)ethyl]amino}-3H-imidazo[4,5-b]pyridin-3-yl)pyridin-2(1H)-one], for which the concentration for half-maximal inhibition (IC50) against human JAK3 (aa 795-1124), against human JAK1 (aa 850-1154) and against human JAK2 (aa 826-1132) was below 100 nM throughout.
